Data: US10532053B2, “Histone deacetylase inhibitor, and preparation method and use thereof” (GUANGDONG ZHONGSHENG PHARMACEUTICAL CO., LTD, priority 2015, dated 2020)
Where two headings read alike, the source gives them in different places.

Tests used:
HDAC1 = biological target: T1, HDAC1 (Homo sapiens, UniProt Q13547); test: HDAC inhibitory activity, fluorescence-coupled acetylated peptide substrate assay (Lys-Ac-AMC); assay type: biochemical
T1 construct: purchased BPS Bioscience
Procedure: (§2) The HDAC inhibitory activity was determined by fluorescence-coupled acetylated peptide substrate assay (Lys-Ac-AMC). HDAC1 protein was purchased from BPS Bioscience, and the reaction buffer system was a modified tris(hydroxymethyl)aminomethane buffer (pH 7.0). The small molecule compounds of the present invention were prepared by being dissolved in 100% DMSO. HDAC was prepared in a buffer at a certain concentration as an enzyme solution; trypsin and fluorescent group 4-amino-7-coumarin coupled-acetylated peptide (Ac-peptide) substrate were prepared in a buffer at a certain concentration as a substrate solution. The compounds were added into the reaction wells in a 384-well plate at a designed concentration of 10 μM, 1 μM, 0.5 μM, 0.1 μM, 0.05 μM, 0.01 μM, 0.005 μM, 0.001 μM, and 0.00005 μM, respectively, and then 15 μl of the HDAC solution was added into the reaction wells (15 μl of blank buffer to the control well). […] The results were analyzed by GraphPad Prism software and IC50 values were calculated according to the formula: Y=Background Data+(Top Data−Background Data)/(1+10^((Log IC50−X) a curve slope)), where Y: the inhibition rate (%) and X: the concentration of the compound.

HDAC6 = biological target: T2, HDAC6 (Homo sapiens, UniProt Q9UBN7); test: HDAC inhibitory activity, fluorescence-coupled acetylated peptide substrate assay; assay type: biochemical
T2 sequence (Q9UBN7 1-1215): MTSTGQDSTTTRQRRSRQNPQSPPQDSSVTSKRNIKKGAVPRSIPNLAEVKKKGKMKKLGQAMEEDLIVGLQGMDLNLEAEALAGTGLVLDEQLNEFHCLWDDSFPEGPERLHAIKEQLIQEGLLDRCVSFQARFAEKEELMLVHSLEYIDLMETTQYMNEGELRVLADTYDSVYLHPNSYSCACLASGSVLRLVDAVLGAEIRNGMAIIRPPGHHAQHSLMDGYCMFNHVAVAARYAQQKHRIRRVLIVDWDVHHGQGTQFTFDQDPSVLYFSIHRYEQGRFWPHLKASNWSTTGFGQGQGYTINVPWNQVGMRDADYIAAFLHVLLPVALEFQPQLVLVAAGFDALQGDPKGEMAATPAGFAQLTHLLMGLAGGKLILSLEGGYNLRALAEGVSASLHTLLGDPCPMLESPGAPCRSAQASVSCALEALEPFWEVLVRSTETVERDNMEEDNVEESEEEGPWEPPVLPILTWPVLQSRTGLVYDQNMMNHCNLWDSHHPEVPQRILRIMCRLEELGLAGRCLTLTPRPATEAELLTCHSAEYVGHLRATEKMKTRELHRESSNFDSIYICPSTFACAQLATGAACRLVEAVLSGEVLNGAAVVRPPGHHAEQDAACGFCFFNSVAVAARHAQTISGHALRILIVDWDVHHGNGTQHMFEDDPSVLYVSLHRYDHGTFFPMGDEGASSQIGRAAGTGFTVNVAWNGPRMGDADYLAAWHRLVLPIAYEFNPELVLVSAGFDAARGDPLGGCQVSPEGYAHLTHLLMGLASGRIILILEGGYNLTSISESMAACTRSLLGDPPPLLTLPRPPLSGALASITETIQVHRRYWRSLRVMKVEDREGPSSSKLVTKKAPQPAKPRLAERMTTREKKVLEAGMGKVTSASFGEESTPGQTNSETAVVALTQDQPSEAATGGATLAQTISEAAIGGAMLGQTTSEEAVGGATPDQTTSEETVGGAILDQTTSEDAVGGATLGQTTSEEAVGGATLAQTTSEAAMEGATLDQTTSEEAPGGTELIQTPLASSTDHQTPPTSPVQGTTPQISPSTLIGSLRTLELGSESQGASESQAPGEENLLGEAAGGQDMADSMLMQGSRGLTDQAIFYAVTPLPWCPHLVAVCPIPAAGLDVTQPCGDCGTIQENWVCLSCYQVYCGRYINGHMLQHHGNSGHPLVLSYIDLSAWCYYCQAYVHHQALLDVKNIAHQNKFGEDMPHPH
Procedure: as §2

B-cell lymphoma Ramos = test: Cell proliferative activity (MTT / cck-8); assay type: cell-based; details: Homo sapiens, read-out: Half-Inhibitory Concentration IC50 Ramos
How it was run: (§1)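 Log-phase tumour cells were seeded at 2000-3000 cells/well, with adherent lines allowed to attach before treatment. Proliferation was read by MTT for solid-tumour lines and by CCK-8 for haematologic lines such as Ramos.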

[1] = system: Human cervical cancer cell Hela; test: Cell proliferative activity (MTT / cck-8); assay type: cell-based
How it was run: as §1

[2] = system: Human liver cancer cell HepG2; test: Cell proliferative activity (MTT / cck-8); assay type: cell-based
How it was run: as §1

Human melanoma A375 = test: Cell proliferative activity (MTT / cck-8); assay type: cell-based; details: A-375, incubated for 96 hours, read-out: Half-Inhibitory Concentration IC50 Human melanoma A375
How it was run: as §1

[3] = system: Human ovarian cancer cell SKOV-3; test: Cell proliferative activity (MTT / cck-8); assay type: cell-based
How it was run: as §1

Leukemia MV4-11 = test: Cell proliferative activity (MTT / cck-8); assay type: cell-based; details: Homo sapiens, read-out: Half-Inhibitory Concentration IC50 MV4-11
How it was run: as §1

Ovarian cancer A2780s = test: Cell proliferative activity (MTT / cck-8); assay type: cell-based; details: Homo sapiens, read-out: Half-Inhibitory Concentration IC50 A2780s
Colon cancer HCT116 = test: Cell proliferative activity (MTT / cck-8); assay type: cell-based; details: Homo sapiens, HCT-116, read-out: Half-Inhibitory Concentration IC50 HCT116
[4] = Assay on the bioavailability in SD rats (plasma, LC-MS/MS); assay type: in vivo; details: for Area under the curve / Clearance rate / Distribution volume / Half-life / Maximum plasma concentration: dose 12 mg/kg (Table 6)
A2780s cells = details: A2780s model, 16 times; for tumor inhibitory rate: vs solvent group
HCT116 cells [5] = test: Therapeutic effect on the colon cancer HCT116 model (intravenous)
HCT116 cells [6] = test: Therapeutic effect on the colon cancer HCT116 subcutaneous tumor model (intragastric); details: 8 times, vs solvent group
[7] = 12.5 mg/kg intragastrically once every other day
[8] = 25 mg/kg intragastrically once every other day
[9] = 50 mg/kg intragastrically once every other day

T1 sequence (Q13547 whole entry): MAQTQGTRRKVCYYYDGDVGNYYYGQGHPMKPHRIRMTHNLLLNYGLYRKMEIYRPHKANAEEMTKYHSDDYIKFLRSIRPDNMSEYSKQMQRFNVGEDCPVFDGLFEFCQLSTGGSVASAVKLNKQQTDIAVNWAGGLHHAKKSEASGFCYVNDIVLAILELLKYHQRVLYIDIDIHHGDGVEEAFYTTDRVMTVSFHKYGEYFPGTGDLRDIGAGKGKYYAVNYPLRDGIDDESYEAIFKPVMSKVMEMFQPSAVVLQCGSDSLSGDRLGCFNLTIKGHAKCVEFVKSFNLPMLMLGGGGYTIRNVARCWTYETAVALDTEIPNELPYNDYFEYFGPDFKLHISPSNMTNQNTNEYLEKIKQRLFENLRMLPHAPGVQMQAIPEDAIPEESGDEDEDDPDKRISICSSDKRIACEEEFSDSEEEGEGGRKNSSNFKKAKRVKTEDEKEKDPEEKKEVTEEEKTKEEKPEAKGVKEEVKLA

**Q.** With `COc1ccc(N(C)c2nc(C)nc3ccccc23)cc1OCCCC(=O)NO` [III-2, N-hydroxy-4-(2-methoxy-5-(methyl(2-methyl-4-quinazolinyl)amino)phenoxy) butanamide] as the compound, how does the IC50 (HDAC1; Table 2) read?
**A.** 100 to 1000 nM

**Q.** What about the IC50 (HDAC1; Table 4, Class I) of the same compound?
**A.** 422 ± 1 nM

**Q.** What about the IC50 (HDAC6; Table 2) of the same compound?
**A.** 10 to 100 nM

**Q.** What about the IC50 (HDAC6; Table 4, Class IIb) of the same compound?
**A.** 17 ± 2 nM

**Q.** What about the IC50 (B-cell lymphoma Ramos) of the same compound?
**A.** 71 ± 31 nM

**Q.** And the IC50 ([1]; Cervical cancer, Table 5, read-out: Half-Inhibitory Concentration IC50 Hela)?
**A.** 49 ± 20 nM

**Q.** What about the IC50 ([1]; incubated for 96 hours, read-out: Half-Inhibitory Concentration IC50 Human cervical cancer cell Hela) of the same compound?
**A.** 10 to 100 nM

**Q.** What about the IC50 ([2]; Liver cancer, Table 5, read-out: Half-Inhibitory Concentration IC50 HepG2) of the same compound?
**A.** 41 ± 1 nM

**Q.** And the IC50 ([2]; incubated for 96 hours, read-out: Half-Inhibitory Concentration IC50 Human liver cancer cell HepG2)?
**A.** 10 to 100 nM

**Q.** And the IC50 (Human melanoma A375)?
**A.** 10 to 100 nM

**Q.** What about the IC50 ([3]; SK-OV-3, Ovarian cancer, Table 5, read-out: Half-Inhibitory Concentration IC50 SKOV-3) of the same compound?
**A.** 50 ± 8 nM

**Q.** And the IC50 ([3]; SK-OV-3, incubated for 96 hours, read-out: Half-Inhibitory Concentration IC50 Human ovarian cancer cell SKOV-3)?
**A.** 10 to 100 nM

**Q.** What about the IC50 (Leukemia MV4-11) of the same compound?
**A.** 60 ± 32 nM

**Q.** What about the IC50 (Ovarian cancer A2780s) of the same compound?
**A.** 46 ± 11 nM

**Q.** What about the IC50 (Colon cancer HCT116) of the same compound?
**A.** 35 ± 21 nM

**Q.** And the “Area under the curve” value ([4]; intravenous administration)?
**A.** 2434.117 μg/L · h

**Q.** And the Clearance rate ([4]; intravenous administration)?
**A.** 116.8 mL/min/kg

**Q.** And the Distribution volume ([4]; intravenous administration)?
**A.** 61.263 L/kg

**Q.** What about the Half-life ([4]; intravenous administration) of the same compound?
**A.** 7.658 h

**Q.** What about the Maximum plasma concentration ([4]; intravenous administration) of the same compound?
**A.** 2213.217 µg/L

**Q.** And the Bioavailability ([4]; oral administration)?
**A.** 47.0%

**Q.** What about the “Area under the curve” value ([4]; oral administration) of the same compound?
**A.** 1242.234 μg/L · h

**Q.** What about the Clearance rate ([4]; oral administration) of the same compound?
**A.** 214.62 mL/min/kg

**Q.** What about the Distribution volume ([4]; oral administration) of the same compound?
**A.** 154.811 L/kg

**Q.** And the Half-life ([4]; oral administration)?
**A.** 9.62 h

**Q.** And the Maximum plasma concentration ([4]; oral administration)?
**A.** 238.133 µg/L

**Q.** And the tumor inhibitory rate (A2780s cells; [7])?
**A.** 78.49%

**Q.** What about the tumor inhibitory rate (A2780s cells; [8]) of the same compound?
**A.** 82.02%

**Q.** What about the “death of mice during the experiment” value (A2780s cells; [9]) of the same compound?
**A.** one mouse died

**Q.** And the tumor inhibitory rate (A2780s cells; [9])?
**A.** 81.70%

**Q.** What about the “survival time of mice” value (HCT116 cells [5]; 50 mg/kg intravenously once every other day, 9 times, vs blank control, P<0.01) of the same compound?
**A.** significantly prolonged the survival time of mice

**Q.** And the “effect prolonging the survival time compared with positive control group” value (HCT116 cells [5]; 50 mg/kg intravenously, SAHA 50 mg/kg intraperitoneally)?
**A.** superior to that of the positive control group

**Q.** And the tumor inhibitory rate (HCT116 cells [6]; 6.25 mg/kg intragastrically once every other day)?
**A.** 51.28%

**Q.** And the tumor inhibitory rate (HCT116 cells [6]; [7])?
**A.** 58.64%

**Q.** What about the tumor inhibitory rate (HCT116 cells [6]; [8]) of the same compound?
**A.** 60.37%

**Q.** And the tumor inhibitory rate (HCT116 cells [6]; [9])?
**A.** 66.05%
